One data set relates to MDA-MB-231. The experiment in a line: Antiproliferative activity against human MDA-MB-231 cells after 48 hrs by MTT assay. As to conditions: MDA-MB-231, 48 h. Type of data set: functional, cell-based. In general terms: Tetrazolium dyes change colour on reduction, which living cells bring about.
Data set [1] is described as follows: Solubility of the compound in physiological saline at 1 mg. Type of data set: physicochemical. As to conditions: buffer.
The next data set has as its system HCT-8. The experiment in a line: Antiproliferative activity against human HCT8 cells after 48 hrs by MTT assay. The settings on record: HCT-8, 48 h. Type of data set: functional, cell-based.
Data set [2] is described as follows: Antiproliferative activity against human HCT8/V cells after 48 hrs by MTT assay. Type of data set: functional, cell-based. As to conditions: HCT-8, 48 h.
Data set [3] can be described thus: Resistance index, ratio of IC50 for human HCT8/V cells to IC50 for human HCT8 cells. Type of data set: functional.
A further data set deals with HCT-116. Briefly: Antitumor activity against human HCT116 cells xenografted in Balb/c athymic nude mouse assessed as tumor growth inhibition at 100 mg/kg, iv administered once in every 7 days measured on day 18 post treatment relative to control. Type of data set: functional. The settings on record: HCT-116, iv, read-out: TGI. A general note: In xenograft studies the graft and the host belong to different species.

The test system of the next data set is Mus musculus. The experiment in a line: Toxicity in Balb/c athymic nude mouse xenografted with human HCT116 cells assessed as body weight loss at 100 mg/kg, iv administered once in every 7 days relative to control. As to conditions: in vivo, 168 h. Type of data set: organism-based.
For a further data set, the system named is A549. The experiment in a line: Antiproliferative activity against human A549 cells after 48 hrs by MTT assay. Type of data set: functional, cell-based. The settings on record: A549, 48 h.
Another data set relates to HEK293. The experiment in a line: Antiproliferative activity against HEK293 cells after 48 hrs by MTT assay. Type of data set: cell-based. As to conditions: Homo sapiens, HEK293, 48 h.
For data set [4], the system named is A2780S. Briefly: Antiproliferative activity against human A2780S cells after 48 hrs by MTT assay. Type of data set: functional, cell-based.
The test system of another data set is L02. The experiment in a line: Antiproliferative activity against human LO2 cells after 48 hrs by MTT assay. Type of data set: cell-based. As to conditions: L02, 48 h.
For another data set, the system named is HepG2. Briefly: Binding affinity to beta-tubulin colchicine binding site in human HepG2 cells assessed as reduction in EBI-beta-tubulin adduct formation at 5 uM preincubated for 2 hrs followed by EBI addition measured after 1.5 hrs by Western blot analysis. Type of data set: cell-based. (In general: In western blotting, separated proteins are transferred to a membrane and probed.)

The test system of another data set is MCF7. The experiment in a line: Antiproliferative activity against human MCF7 cells after 48 hrs by MTT assay. Type of data set: functional, cell-based. As to conditions: MCF7, 48 h.
Data set [5] has as its system A2780S. The experiment in a line: Induction of alpha-tubulin depolymerization in human A2780S cells at 100 nM after 24 hrs by DAPI staining based immunofluorescence microscopic method. Type of data set: cell-based.
The subject of another data set is NCI/ADR-RES. The experiment in a line: Antiproliferative activity against human MCF7/ADR cells after 48 hrs by MTT assay. Type of data set: functional, cell-based.
Data set [6] can be described thus: Resistance index, ratio of IC50 for human A2780T cells to IC50 for human A2780S cells. Type of data set: functional.
Data set [7] is described as follows: Resistance index, ratio of IC50 for human HCT8/T cells to IC50 for human HCT8 cells. Type of data set: functional.
The subject of the next data set is A2780/Taxol. The experiment in a line: Antiproliferative activity against human A2780T cells after 48 hrs by MTT assay. Type of data set: functional, cell-based.
Data set [8] is described as follows: Antiproliferative activity against human HCT8/T cells after 48 hrs by MTT assay. Type of data set: functional, cell-based. As to conditions: HCT-8, 48 h.

Where a name gives a salt, the structure may show the parent alone. Activity calls are given as the source filed them. No cut-off for these calls is given here.

For orientation: IC50 means the concentration that inhibits the measured activity by half. Read a high IC50 as lower potency. For `COc1ccc(N(C)c2cc(C)nc3ccccc23)cc1NC(C)=O`, in the data set on MDA-MB-231, the IC50 amounted to 9.1 nM. Moreover, the solubility entry in data set [1] is reported as “Soluble”.
For `COc1ccc(N(C)c2cc(C)nc3ccccc23)cc1NC(=O)CBr`, in that order: 87.2 nM and “Soluble”.
Take `CC[C@]1(O)C[C@@H]2CN(CCc3c([nH]c4ccccc34)[C@@](C(=O)OC)(c3cc4c(cc3OC)N(C)[C@H]3[C@@](O)(C(=O)OC)[C@H](OC(C)=O)[C@]5(CC)C=CCN6CC[C@]43[C@@H]65)C2)C1` [VINBLASTINE]: the IC50 in the data set on HCT-8 is 20.2 nM; in [2], 2060 nM. In addition, the “Ratio IC50” value in data set [3] is 101.8.
As for `COc1ccc(N(C)c2ccnc3ccccc23)cc1N`, in the data set on MDA-MB-231, the IC50 was over 500 nM. Further, in [1], the solubility entry is “Soluble”.
In the data set on MDA-MB-231, `CCC(=O)Nc1cc(N(C)c2cc(C)nc3ccccc23)ccc1OC` had an IC50 of 18.5 nM. For the same molecule, the solubility entry in data set [1] was “Soluble”.
In the data set with MDA-MB-231, `CCCCC(=O)Nc1cc(N(C)c2cc(C)nc3ccccc23)ccc1OC` registered an IC50 of 82.4 nM. Also, the solubility result in data set [1] is recorded as “Insoluble”.
For `COC(=O)C(=O)Nc1cc(N(C)c2cc(C)nc3ccccc23)ccc1OC`, in that order: over 500 nM and “Insoluble”.
The molecule `CCCC(=O)Nc1cc(N(C)c2cc(C)nc3ccccc23)ccc1OC` had an IC50 in the data set with MDA-MB-231 of 58.4 nM. The solubility entry in data set [1] is given as “Insoluble”.
Regarding `O=c1[nH]cc(F)c(=O)[nH]1` [FLUOROURACIL], the inhibition in vivo at 100 mg/kg in the data set with HCT-116 turned out to be 60.8%. Also, the Activity with Mus musculus is under 10%.
The molecule `COc1ccc(N(C)c2cc(C)nc3ccccc23)cc1NC(=O)CCCl` registered an IC50 with MDA-MB-231 of 96.6 nM. Moreover, in data set [1], the solubility entry is “Soluble”.
In the data set with MDA-MB-231, `COc1ccc(N(C)c2cc(C)nc3ccccc23)cc1NC(=O)CN1CCSCC1` yielded an IC50 of over 500 nM. For the same molecule, the solubility result in data set [1] was “Soluble”.
`COc1ccc(N(C)c2cc(C)nc3ccccc23)cc1NC(=O)CN(C)CCC#N` registered an IC50 in the data set with MDA-MB-231 of over 500 nM. For the same molecule, in data set [1], the solubility result is “Insoluble”.
On to `COc1ccc(N(C)c2cc(C)nc3ccccc23)cc1NC(=O)CN1CCCC(C)C1` (configuration not stated), for which the IC50 with MDA-MB-231 stood at 394 nM. The solubility result in [1] is listed as “Insoluble”.
`CCOC(=O)C(=O)Nc1cc(N(C)c2cc(C)nc3ccccc23)ccc1OC`: the midpoint of inhibition with MDA-MB-231, the IC50, lay at 443 nM. In data set [1], the solubility result is on record as “Soluble”.
Consider `COc1ccc(N(C)c2ccnc3ccccc23)cc1`, for which the IC50 in the data set with MDA-MB-231 was over 500 nM. The solubility entry in data set [1] is recorded as “Insoluble”.
In the data set with MDA-MB-231, `C=CC(=O)Nc1cc(N(C)c2cc(C)nc3ccccc23)ccc1OC` gave an IC50 of 43.4 nM. For the same molecule, in data set [1], the solubility entry is “Soluble”.
For `COc1ccc(N(C)c2cc(C)nc3ccccc23)cc1NC(=O)CCCCCl`, in that order: 363 nM and “Insoluble”.
`COC(=O)CCCC(=O)Nc1cc(N(C)c2cc(C)nc3ccccc23)ccc1OC` had an IC50 with MDA-MB-231 of 186 nM. The solubility result in data set [1] is “Insoluble”.
Consider `COc1ccc(N(C)c2cc(C)nc3ccccc23)cc1NC(=O)CCl`, for which, in the data set with MDA-MB-231, the IC50 came to 6.6 nM. Also, the solubility result in data set [1] is recorded as “Soluble”.
As for `COc1cc2c(c(OC)c1OC)-c1ccc(OC)c(=O)cc1[C@@H](NC(C)=O)CC2` [COLCHICINE], the IC50 amounted to 13.4 nM with HCT-8; 32.7 nM in the data set with A549; 10.2 nM in the data set with HEK293; 12.3 nM in the data set on A2780S [4]; 38.2 nM with MDA-MB-231; 26.5 nM in the data set on L02. Also, it took 13.4 nM to reach half-maximal inhibition in the data set with MCF7 (IC50). Moreover, the outcome in the data set with HepG2 and in the data set on A2780S [5] was Active.
On to `CSc1ccc(N(C)c2cc(C)nc3ccccc23)cc1N`, for which the IC50 in the data set on MDA-MB-231 was 9.5 nM. The solubility entry in data set [1] is recorded as “Soluble”.
For the molecule `COc1cccc2c1C(=O)c1c(O)c3c(c(O)c1C2=O)C[C@@](O)(C(=O)CO)C[C@@H]3O[C@H]1C[C@H](N)[C@H](O)[C@H](C)O1` [DOXORUBICIN HYDROCHLORIDE], the 50% inhibitory concentration (IC50) in the data set on NCI/ADR-RES was 54.8 µM.
Regarding `COc1ccc(N(C)c2cc(C)nc3ccccc23)cc1N`, the IC50 in the data set on MDA-MB-231 is 3.2 nM. Also, in data set [1], the solubility entry is given as “Insoluble”.
In the data set on MDA-MB-231, `COc1ccc(N(C)c2cc(C)nc3ccccc23)cc1NC(=O)CN1CCOCC1` showed an IC50 of 256 nM. For the same molecule, the solubility result in data set [1] is listed as “Insoluble”.
In the case of `CC(=O)O[C@H]1C(=O)[C@@]2(C)[C@H]([C@H](OC(=O)c3ccccc3)[C@]3(O)C[C@H](OC(=O)[C@H](O)[C@@H](NC(=O)c4ccccc4)c4ccccc4)C(C)=C1C3(C)C)[C@]1(OC(C)=O)CO[C@@H]1C[C@@H]2O` [PACLITAXEL], the IC50 with HCT-8 was determined as 17.4 nM; in the data set with A2780S [4] it was 12.3 nM; with A2780/Taxol, 25.1 µM; in data set [8], 9.88 µM. Besides, the “Ratio IC50” value in data set [6] worked out at 2042.3; in [7], 567.4. Further, in the data set on A2780S [5], the outcome was inactive.
As to `COc1ccc(N(C)c2cc(Cl)nc3ccccc23)cc1`, the IC50 in the data set on MDA-MB-231 is over 500 nM. Besides, in [1], the solubility result was “Insoluble”.
`COc1ccc(N(C)c2cc(C)nc3ccccc23)cc1`: it took 6.6 nM to reach half-maximal inhibition with MDA-MB-231 (IC50). For the same molecule, the solubility entry in data set [1] is on record as “Insoluble”.
For the molecule `CSc1ccc(N(C)c2cc(C)nc3ccccc23)cc1`, the IC50 with MDA-MB-231 was found to be 15.5 nM. Besides, the solubility result in data set [1] is reported as “Soluble”.
Consider `COc1ccc(N(C)c2cc(C)nc3ccccc23)cc1NC(=O)CNCCNc1ccccc1`, for which half-maximal inhibition in the data set with MDA-MB-231 (IC50) required 83.6 nM. In [1], the solubility result is recorded as “Insoluble”.
`COc1ccc(N(C)c2cc(Cl)nc3ccccc23)cc1N`: inhibition in the data set on MDA-MB-231 was half-maximal at 43.1 nM (IC50). Further, in data set [1], the solubility entry is reported as “Insoluble”.

These data come from ChEMBL document CHEMBL4130373, “Design, synthesis and biological evaluation of 4-anilinoquinoline derivatives as novel potent tubulin depolymerization agents” (Eur J Med Chem, 2017).
